Each compound was assayed on Meloidogyne incognita (assay: Meloidogyne incognita test (sand, lettuce, gall formation)). Details: Meloidogyne incognita, 336 h, 4 ppm, after 14 days; read-out: nematicidal efficacy (formation of galls).
Format: in vivo
Description: Meloidogyne incognita Test [table] To produce a suitable active compound preparation, 1 part by weight of active compound is mixed with the stated amount of solvent and the concentrate is diluted to the desired concentration with water. Vessels are filled with sand, active compound solution, an egg/larvae suspension of the southern root-knot nematode (Meloidogyne incognita) and lettuce seeds. The lettuce seeds germinate and the plants develop. The galls develop on the roots. After 14 days, the nematicidal efficacy in % is determined by the formation of galls. 100% means that no galls were found; 0% means that the number of galls on the treated plants corresponds to the untreated control.

Structure (SMILES)	pest or weed control at 4 ppm [%]
CC(C)Oc1ccc(Cl)c(S(=O)(=O)NC(=O)c2cn(-c3c(F)cccc3F)cn2)c1 [I-357]	90
O=C(NS(=O)(=O)c1c(Cl)cccc1Cl)c1cn(Cc2ccc(Cl)cc2)cn1 [I-149]	90

Same assay, conditions: Meloidogyne incognita, 336 h, 20 ppm, after 14 days; read-out: nematicidal efficacy (formation of galls)

Structure (SMILES)	pest or weed control at 20 ppm [%]
COc1ccc(Cl)c(S(=O)(=O)NC(=O)c2cn(-c3cc(Cl)cc(Cl)c3)c(C(C)C)n2)c1 [I-403]	90
Cc1nc(C(=O)NS(=O)(=O)c2c(F)cccc2NC(C)C)cn1-c1cc(Cl)cc(Cl)c1 [I-377]	90
COc1ccc(Cl)c(S(=O)(=O)NC(=O)c2cn(-c3cccc(Cl)c3)cn2)c1 [I-179]	90
O=C(NS(=O)(=O)c1ccc(OC(F)(F)F)cc1)c1ncn(CCC(F)(F)F)c1Cl [I-033]	90
O=C(NS(=O)(=O)c1cc(C(F)(F)F)ccc1Cl)c1nc(Cl)n(C2CC2C(F)(F)F)c1Cl (centres unmarked) [I-468]	100
Cc1nc(C(=O)NS(=O)(=O)c2ccccc2Cl)c(Cl)n1-c1cc(Cl)cc(Cl)c1 [I-111]	100
Cn1nc(C(=O)NS(=O)(=O)c2cc(Cl)ccc2Cl)cc1-c1cccc(C(F)(F)F)c1 [I-135]	90
O=C(NS(=O)(=O)c1c(Cl)cccc1Cl)c1nc(Cl)n(CCC(F)(F)F)c1Cl [I-451]	90
O=C(NS(=O)(=O)c1cccc(Cl)c1)c1ncn(-c2ccc(C(F)(F)F)cc2)c1Cl [I-422]	100
CC(C)Oc1ccc(S(=O)(=O)NC(=O)c2ncn(CCC(F)(F)F)c2Cl)cc1 [I-034]	90
Cc1nc(C(=O)NS(=O)(=O)c2ccccc2Cl)cn1Cc1ccccc1Cl [I-163]	90
O=C(NS(=O)(=O)Cc1ccc(Cl)cc1)c1ncn(CCC(F)(F)F)c1Cl [I-084]	100
O=C(NS(=O)(=O)c1ccccc1)c1ncn(-c2ccc(Cl)cc2)c1Cl [I-414]	100
COc1ccc(S(=O)(=O)NC(=O)c2ncn(CCC(C)C)c2Cl)cc1 [I-045]	100
O=C(NS(=O)(=O)c1ccccc1)c1ncn(CCOC(F)(F)F)c1Cl [I-054]	90
Cc1nc(C(=O)NS(=O)(=O)c2ccccc2)cn1-c1ccccc1Cl [I-270]	90
COc1ccc(Cl)c(S(=O)(=O)NC(=O)c2cn(-c3cc(Cl)cc(Cl)c3)c(Cl)n2)c1 [I-443]	100
O=C(NS(=O)(=O)c1ccccc1)c1cn(-c2cc(Cl)cc(C(F)(F)F)c2)cn1 [I-272]	90
O=C(NS(=O)(=O)c1ccccc1Cl)c1nc(Cl)n(-c2cc(Cl)cc(Cl)c2)c1Cl [I-114]	100
CC(C)CCn1cnc(C(=O)NS(=O)(=O)c2ccccc2)c1Cl [I-044]	100
COc1ccc(-n2cnc(C(=O)NS(=O)(=O)c3ccccc3)c2)cc1 [I-211]	100
Cc1nc(C(=O)NS(=O)(=O)c2cc(Cl)ccc2Cl)cn1-c1c(F)cccc1F [I-365]	100
CC(CC(F)(F)F)n1cnc(C(=O)NS(=O)(=O)c2cccc(Cl)c2)c1Cl (centres unmarked) [I-072]	100
Cc1nc(C(=O)NS(=O)(=O)c2ccccc2Cl)cn1-c1ccccc1 [I-252]	100
Cc1nc(C(=O)NS(=O)(=O)c2ccccc2Cl)cn1-c1cc(F)cc(C(F)(F)F)c1 [I-334]	100

Structure (SMILES)	pest or weed control at 20 ppm [%]
COc1ccc(S(=O)(=O)NC(=O)c2cn(-c3cc(Cl)cc(Cl)c3)c(C)n2)cc1 [I-411]	100
Cc1nc(C(=O)NS(=O)(=O)c2ccc(Cl)cc2)cn1-c1cccc(Cl)c1Cl [I-271]	100
O=C(NS(=O)(=O)c1c(Cl)cccc1Cl)c1cn(-c2cc(C(F)(F)F)cc(C(F)(F)F)c2)cn1 [I-292]	90
O=C(NS(=O)(=O)c1ccccc1Cl)c1ncn(-c2ccc(Cl)cc2)c1Cl [I-416]	100
O=C(NS(=O)(=O)c1ccccc1Cl)c1cn(-c2cc(Cl)c(Br)c(Cl)c2)cn1 [I-311]	90
Cn1nc(C(=O)NS(=O)(=O)c2cc(Cl)ccc2Cl)cc1-c1cccc(Cl)c1 [I-132]	90
COc1ccc(S(=O)(=O)NC(=O)c2ncn(CCOC(F)(F)F)c2Cl)cc1 [I-055]	90
O=C(NS(=O)(=O)c1ccccc1Cl)c1cn(-c2cc(Cl)c(Cl)c(Cl)c2)cn1 [I-302]	100
Cc1ccc(S(=O)(=O)NC(=O)c2ncn(CC(F)(F)F)c2Cl)cc1 [I-023]	90
COc1ccc(F)c(S(=O)(=O)NC(=O)c2cn(-c3cc(F)cc(Cl)c3)c(C)n2)c1 [I-369]	100
O=C(NS(=O)(=O)c1c(Cl)cccc1Cl)c1cn(-c2cccc(Cl)c2Cl)cn1 [I-243]	100
COc1ccc(Cl)c(S(=O)(=O)NC(=O)c2ncn(-c3ccc(Cl)cc3Cl)c2C(F)F)c1 [I-482]	90
Cc1ccccc1S(=O)(=O)NC(=O)c1nc(Cl)n(CCC(F)(F)F)c1Cl [I-452]	100
O=C(NS(=O)(=O)c1c(Cl)cccc1Cl)c1cn(-c2cc(Cl)c(Cl)c(Cl)c2)cn1 [I-305]	90
CCCCOc1ccc(S(=O)(=O)NC(=O)c2ncn(CCC(F)(F)F)c2Cl)cc1 [I-090]	90
COc1ccc(Cl)c(S(=O)(=O)NC(=O)c2ncn(-c3ccccc3Cl)c2C(F)F)c1 [I-479]	90
Cc1cc(C)cc(-n2cnc(C(=O)NS(=O)(=O)c3c(Cl)cccc3Cl)c2)c1 [I-299]	90
O=C(NS(=O)(=O)c1ccc(Cl)cc1Cl)c1ncn(CC(F)(F)F)c1Cl [I-013]	70
Cc1nc(C(=O)NS(=O)(=O)c2ccccc2Cl)cn1-c1cc(F)cc(F)c1 [I-331]	100
CC(CC(F)(F)F)n1cnc(C(=O)NS(=O)(=O)c2c(Cl)cccc2Cl)c1Cl (centres unmarked) [I-101]	100
CCCn1cnc(C(=O)NS(=O)(=O)c2ccc(OC)cc2)c1Cl [I-039]	100
Cc1ccc(-n2cnc(C(=O)NS(=O)(=O)c3c(Cl)cccc3Cl)c2)cc1 [I-212]	90
COc1ccc(Cl)c(S(=O)(=O)NC(=O)c2cn(C)c(C(F)(F)F)n2)c1 [I-475]	90
O=C(NS(=O)(=O)c1cc(Cl)ccc1Cl)c1ncn(CCC(F)(F)F)c1Cl [I-015]	90
COc1cc(OC)nc(Oc2ccc(S(=O)(=O)NC(=O)c3ncn(CCC(F)(F)F)c3Cl)cc2)n1 [I-096]	90

Structure (SMILES)	pest or weed control at 20 ppm [%]
Cc1nc(C(=O)NS(=O)(=O)c2c(F)cccc2NC(C)C)cn1-c1cc(F)cc(Cl)c1 [I-381]	100
O=C(NS(=O)(=O)c1ccccc1Cl)c1cn(-c2ccccc2Cl)cn1 [I-183]	90
O=C(NS(=O)(=O)c1cc(Cl)ccc1Cl)c1cn(Cc2ccc(Cl)cc2)cn1 [I-154]	90
COc1ccc(Br)c(S(=O)(=O)NC(=O)c2cn(-c3c(F)cccc3F)cn2)c1 [I-361]	90
COc1ccc(Cl)c(S(=O)(=O)NC(=O)c2ncn(-c3ccc(Cl)cc3)c2C(F)F)c1 [I-481]	70
O=C(NS(=O)(=O)c1c(Cl)cccc1Cl)c1cn(-c2ccc(Cl)cc2)cn1 [I-186]	90
Cc1nc(C(=O)NS(=O)(=O)C(C)C)cn1-c1cc(Cl)cc(Cl)c1 [I-409]	100
O=C(NS(=O)(=O)c1cccc(Cl)c1)c1ncn(-c2ccccc2C(F)(F)F)c1Cl [I-428]	90
O=C(NS(=O)(=O)c1ccc(Cl)cc1Cl)c1cn(-c2cc(Cl)cc(Cl)c2)cn1 [I-189]	90
Cc1nc(C(=O)NS(=O)(=O)c2ccccc2Cl)cn1Cc1cccc(Cl)c1 [I-168]	100
COc1ccc(Cl)c(S(=O)(=O)NC(=O)c2ncn(-c3ccc(Cl)cc3Cl)c2C2CC2)c1 [I-486]	70
O=C(NS(=O)(=O)c1ccc(Cl)cc1)c1cn(Cc2ccccc2)cn1 [I-150]	100
COc1ccc(Cl)c(S(=O)(=O)NC(=O)c2cn(-c3cc(F)cc(C(F)(F)F)c3)c(C(C)C)n2)c1 [I-405]	100
COc1ccc(Cl)c(S(=O)(=O)NC(=O)c2cn(-c3c(F)cccc3F)c(C)n2)c1 [I-363]	90
COc1ccc(Cl)c(S(=O)(=O)NC(=O)c2nc(Br)n(-c3cc(Cl)cc(Cl)c3)c2Br)c1 [I-442]	100
O=C(NS(=O)(=O)c1ccccc1Cl)c1cn(-c2cc(F)cc(Cl)c2)cn1 [I-240]	100
O=C(NS(=O)(=O)c1ccccc1Cl)c1cn(Cc2c(F)cccc2F)cn1 [I-003]	90
CC(CC(F)(F)F)n1cnc(C(=O)NS(=O)(=O)c2ccccc2Cl)c1Cl (centres unmarked) [I-071]	100
CCOc1ccc(Cl)c(S(=O)(=O)NC(=O)c2cn(-c3cc(Cl)cc(Cl)c3)c(C)n2)c1 [I-319]	100
O=C(NS(=O)(=O)c1ccc(Cl)cc1)c1ncn(CCOC(F)(F)F)c1Cl [I-057]	100
CC(C)S(=O)(=O)NC(=O)c1cn(C)c(Cc2ccccc2Cl)n1 [I-117]	90
O=C(NS(=O)(=O)c1ccccc1Cl)c1nc(Br)n(CCC(F)(F)F)c1Cl [I-440]	100
O=C(NS(=O)(=O)c1ccc(Cl)cc1)c1ncn(CC(F)(F)C(F)(F)F)c1Cl [I-078]	100
O=C(NS(=O)(=O)c1cccs1)c1ncn(CCC(F)(F)F)c1Cl [I-097]	90
COc1ccc(Cl)c(S(=O)(=O)NC(=O)c2ncn(-c3c(F)cccc3F)c2C(F)F)c1 [I-487]	100

— patent US10820591B2, “Substituted sulfonyl amides for controlling animal pests” (Bayer Aktiengesellschaft, priority 2016, dated 2020)
